In US20090297628A1, “Use of iron in the form of a stone extract as stimulus of the synthesis of collagen by skin fibroblasts” (GATTEFOSSE SAS, priority 2005, published 2009):

Tested on: pro-collagen I in normal human fibroblasts
Experiment: Pro-collagen I content of normal human fibroblasts cultivated in a monolayer (Elisa on cell lysates)
Type: cell-based
Settings: 10 ng/ml, 48 H incubation, p<0.05
Description: The influence of the product on the expression of pro-collagen I is investigated in a model of normal human fibroblasts cultivated in a monolayer. The pro-collagen I is quantified using an Elisa (Enzyme Linked ImmunoSorbent Assay) kit on cell lysates. Furthermore, the proteins contained in the cell lysates are quantified by a spectrocolorimetric method according to the Bradford method. Included in the study is a negative control, consisting of the culture medium, and a positive control, represented by TGF-β (Transforming Growth Factor β) containing 10 ng/ml.
Collagens of types I, II, […], IV and V are synthesized from precursor molecules called “pro-collagen”. […]
The fibroblasts are incubated for 48 hours at 37° C., under humid atmosphere and 5% CO2 in a culture medium alone or in the presence of a reference product or increasing concentrations of active ingredients in the test. After 48 H of incubation of the test product, the type I pro-collagen and the total proteins present in the cell lysates are quantified. The results are obtained as a quantity (ng) of pro-collagen of type I C-Peptide per quantity (μg) of total proteins of the cell layer (means+/−standard deviation, S.D.). The statistical significance (*) of the differences observed between the “control” condition and each “treated” condition is evaluated by a One Way ANOVA on Ranks analysis followed by a Dunn's test (*: p<0.05). […]

## TGF-β
  Increase of the intrafibroblastic content of type I pro-collagen: 25%
